How the values were obtained:
[1] = tested on: mice; test: Object Recognition task (ORT), scopolamine-induced memory impairment; assay type: in vivo; details: 1 mg/kg intraperitoneally with scopolamine 0.5 mg/kg
Description: For behavioural studies, 50 swiss female 10-week-old weighing 25-30 g were used. Memory impairment was induced by the potent antimuscarinic drug scopolamine hydrobromide (0.5 mg/kg, Sigma) dissolved in saline buffer. To explore the potential of BIGI-3h as a cognitive enhancer, the compound was administered at a dose of 1 mg/kg and 10 mg/kg. For comparison, the antiamnesic effect of donepezil was tested (Tocris Bioscience, R&D Systems Inc.) at a dose of 1 mg/kg. Both products, 3h and donepezil, were dissolved in saline buffer containing 3.6% dimethyl sulfoxide. All drug solutions were independently prepared immediately before their use and were administered intraperitoneally in 10 mL/kg of vehicle volume. Different batches of mice were used for each experiment. The animals were distributed into 5 experimental groups (I-V): control groups (I) mice administered 3.6% DMSO in saline buffer, labelled as "control vehicle"; experimental groups (II-V) consisted of (II) mice administered scopolamine dissolved in 3.6% DMSO in saline buffer, labelled as "scop/DMSO," (III) mice co-administered scopolamine plus Donepezil, labelled as "Scopo/donep," (IV) and (V) mice co-administrated scopolamine plus BIGI-3h at 1mg/Kg and 10mg/Kg labelled respectively "Scopo/3h 1" "Scopo/3h 10".
Spontaneous object recognition was tested as described previously, 28 with slight modifications. All behavioural experiments took place during the light phase of the 12-h light/ dark cycle between 10 am and 3 pm to minimize the influence of circadian rhythm, and they were conducted with the investigators blind to treatments. […] The total time spent in active exploration of each object during T1 and T2 was determined with a computerized tracking system and image analyzer (Ethovision XT, Noldus Information Technology) that tracked the nose, centre and tail points of each mouse^45. As a criterion of active object exploration, it was measured the time spent by the animal directing its nose to the object at a distance of less than 2 cm and/or touching it with the vibrissae or nose. […]

[2] = biological target: Tau(306-336) peptide (Homo sapiens, UniProt P10636); details: Tau(306-336) 50 µM, inhibitor 50 µM (1:1 ratio); mean ± SEM
Chain of Tau(306-336) peptide (P10636 623-653 limits assumed): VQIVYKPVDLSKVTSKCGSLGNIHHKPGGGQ
Description: Subsequently, the sample was aliquoted dried and stored at -20 °C.
Fluorescence data were recorded every 10 min overnight with 1 min shaking at 800 rpm prior to each reading. Each inhibitor was assayed in triplicates in at least two independent experiments. […] Inhibition % are expressed as the mean ± SEM. […] Values were averaged and the presented values are expressed as the mean ± SEM.
Fluorescence data were recorded every 10 min overnight with 1 min shaking at 800 rpm prior to each reading.

SMILES	recognition index / discrimination index (Figure 5) [1]	Inhibition of T (306-336) peptide self - aggregation (%) [2]
COc1cc2c(cc1OC)C(=O)C(CC1CCN(Cc3ccccc3)CC1)C2 (centres unmarked) [donepezil, reference compound]	reversed the short-term memory impairment induced by scopolamine	–
Nc1c2c(nc3ccccc13)CCCC2 [tacrine, reference compound]	–	not able to significantly interfere
